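Assay format: 96-well plates, 48-hour exposure. The concentration for 50% growth inhibition is given as GI50. Definition used: TGI = concentration required for complete inhibition of growth.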
Assays:
Experiment in all cases: growth of human tumour cells (NCI), 48 h
A498 renal = tested on: A498 renal
SF-268 CNS = tested on: SF-268 CNS
SNB-19 CNS = tested on: SNB-19 CNS
NCI-H23 lung = tested on: NCI-H23 lung
HCT-116 colon = tested on: HCT-116 colon
RXF 393 renal = tested on: RXF 393 renal
SF-295 CNS = tested on: SF-295 CNS
HCT-15 colon = tested on: HCT-15 colon
MDA-MB-231 breast = tested on: MDA-MB-231 breast
NCI/ADR-RES ovarian = tested on: NCI/ADR-RES ovarian
HL-60(TB) leukemia = tested on: HL-60(TB) leukemia
NCI-H226 lung = tested on: NCI-H226 lung
EKVX NSCLC = tested on: EKVX NSCLC
CAKI-1 renal = tested on: CAKI-1 renal
MCF7 breast = tested on: MCF7 breast
MOLT-4 leukemia = tested on: MOLT-4 leukemia
BT-549 breast = tested on: BT-549 breast
IGROV1 ovarian = tested on: IGROV1 ovarian
HOP-62 NSCLC = tested on: HOP-62 NSCLC
786-0 renal = tested on: 786-0 renal
UACC-257 melanoma = tested on: UACC-257 melanoma
SN12C renal = tested on: SN12C renal
A549 NSCLC = tested on: A549 NSCLC
ACHN renal = tested on: ACHN renal
SF-539 CNS = tested on: SF-539 CNS
SR leukemia = tested on: SR leukemia
HCC-2998 colon = tested on: HCC-2998 colon
SK-MEL-28 melanoma = tested on: SK-MEL-28 melanoma
U251 CNS = tested on: U251 CNS
UO-31 renal = tested on: UO-31 renal
KM12 colon = tested on: KM12 colon
NCI-H460 lung = tested on: NCI-H460 lung
LOX IMVI melanoma = tested on: LOX IMVI melanoma
T-47D breast = tested on: T-47D breast
TK-10 renal = tested on: TK-10 renal
PC-3 prostate = tested on: PC-3 prostate
UACC-62 melanoma = tested on: UACC-62 melanoma
SNB-75 CNS = tested on: SNB-75 CNS
K-562 leukemia = tested on: K-562 leukemia
HOP-92 NSCLC = tested on: HOP-92 NSCLC
SK-MEL-2 melanoma = tested on: SK-MEL-2 melanoma
HS 578T breast = tested on: HS 578T breast
OVCAR-4 ovarian = tested on: OVCAR-4 ovarian
DU-145 prostate = tested on: DU-145 prostate
MDA-MB-435 = tested on: MDA-MB-435
CCRF-CEM leukemia = tested on: CCRF-CEM leukemia
SK-OV-3 ovarian = tested on: SK-OV-3 ovarian
HT29 colon = tested on: HT29 colon
OVCAR-5 ovarian = tested on: OVCAR-5 ovarian
OVCAR-3 ovarian = tested on: OVCAR-3 ovarian
OVCAR-8 ovarian = tested on: OVCAR-8 ovarian
SW-620 colon = tested on: SW-620 colon
M14 melanoma = tested on: M14 melanoma
COLO 205 colon = tested on: COLO 205 colon
SK-MEL-5 melanoma = tested on: SK-MEL-5 melanoma

## COc1ccc(C(=O)NCCNc2nccc(-c3c(-c4ccc(F)cc4)nc4sccn34)n2)cc1
A498 renal
  GI50: 2.07 µM
  TGI: 55 µM
SF-268 CNS
  GI50: 2.61 µM
  TGI: 33.5 µM
SNB-19 CNS
  GI50: 10.3 µM
  TGI: > 100 µM
NCI-H23 lung
  GI50: 8.95 µM
  TGI: > 100 µM
HCT-116 colon
  GI50: 3.95 µM
  TGI: 19.8 µM
RXF 393 renal
  GI50: 4.05 µM
  TGI: 39.4 µM
SF-295 CNS
  GI50: 2.73 µM
  TGI: 15.1 µM
HCT-15 colon
  GI50: 4.09 µM
  TGI: > 100 µM
MDA-MB-231 breast
  GI50: 24.8 µM
  TGI: > 100 µM
NCI/ADR-RES ovarian
  GI50: 7.62 µM
  TGI: > 100 µM
HL-60(TB) leukemia
  GI50: 13.6 µM
  TGI: 47.8 µM
NCI-H226 lung
  GI50: 6 µM
  TGI: 69.1 µM
EKVX NSCLC
  GI50: 5.03 µM
  TGI: 73.9 µM
CAKI-1 renal
  GI50: 2.27 µM
  TGI: 24.5 µM
MCF7 breast
  GI50: 2 µM
  TGI: 36.2 µM
MOLT-4 leukemia
  GI50: 6.97 µM
  TGI: 57.8 µM
BT-549 breast
  GI50: 7.95 µM
  TGI: 31.2 µM
IGROV1 ovarian
  GI50: 2.53 µM
  TGI: 15.5 µM
HOP-62 NSCLC
  GI50: 12.8 µM
  TGI: > 100 µM
786-0 renal
  GI50: 8.04 µM
  TGI: > 100 µM
UACC-257 melanoma
  GI50: 13.9 µM
  TGI: 68.8 µM
SN12C renal
  GI50: 7.8 µM
  TGI: > 100 µM
A549 NSCLC
  GI50: 3.89 µM
  TGI: > 100 µM
ACHN renal
  GI50: 2.67 µM
  TGI: > 100 µM
SF-539 CNS
  GI50: 16.3 µM
  TGI: > 100 µM
SR leukemia
  GI50: 5.93 µM
  TGI: 49.1 µM
HCC-2998 colon
  GI50: 9.72 µM
  TGI: > 100 µM
SK-MEL-28 melanoma
  GI50: 12.8 µM
  TGI: > 100 µM
U251 CNS
  GI50: 4.47 µM
  TGI: > 100 µM
UO-31 renal
  GI50: 1.42 µM
  TGI: 16.5 µM
KM12 colon
  GI50: 2.99 µM
  TGI: 22.4 µM
NCI-H460 lung
  GI50: 3.55 µM
  TGI: > 100 µM
LOX IMVI melanoma
  GI50: 4.67 µM
  TGI: > 100 µM
T-47D breast
  GI50: 5.78 µM
  TGI: 34 µM
TK-10 renal
  GI50: 16.1 µM
  TGI: > 100 µM
PC-3 prostate
  GI50: 10.9 µM
  TGI: > 100 µM
UACC-62 melanoma
  GI50: 4.03 µM
  TGI: 28.4 µM
SNB-75 CNS
  GI50: 2.97 µM
  TGI: 37.2 µM
K-562 leukemia
  GI50: 4.81 µM
  TGI: > 100 µM
HOP-92 NSCLC
  GI50: 13.4 µM
  TGI: > 100 µM
SK-MEL-2 melanoma
  GI50: 6.23 µM
  TGI: 30.4 µM
HS 578T breast
  GI50: 6.12 µM
  TGI: 72.3 µM
OVCAR-4 ovarian
  GI50: 10.5 µM
  TGI: 84 µM
DU-145 prostate
  GI50: 1.04 µM
  TGI: 18.9 µM
MDA-MB-435
  GI50: 3.1 µM
  TGI: 22.7 µM
CCRF-CEM leukemia
  GI50: 4.75 µM
  TGI: > 100 µM
SK-OV-3 ovarian
  GI50: 13.7 µM
  TGI: > 100 µM
HT29 colon
  GI50: 2.5 µM
  TGI: > 100 µM
OVCAR-5 ovarian
  GI50: 39 µM
  TGI: > 100 µM
OVCAR-3 ovarian
  GI50: 1.24 µM
  TGI: 19.9 µM
OVCAR-8 ovarian
  GI50: 5.07 µM
  TGI: > 100 µM
SW-620 colon
  GI50: 7.22 µM
  TGI: > 100 µM
M14 melanoma
  GI50: 6.45 µM
  TGI: 30.9 µM
COLO 205 colon
  GI50: 3.01 µM
  TGI: 22.8 µM
SK-MEL-5 melanoma
  GI50: 3.01 µM
  TGI: 15.7 µM
